Where “and” joins values, the source holds several entries; their conditions need not be identical. Equal entries are not always repeated.
Experiment: Screening of excipient suitability: zileuton with excipient, stability at 50° C.
Format: physicochemical
Description: Suitability of components generally used in cream formulation with respect to zieluton was screened, prior to preparing a zieluton cream formulation. […] That is, the stability of excipient at 50° C. was tested.

[1] = Zileuton API alone, 2 weeks, 50° C.
[2] = Zileuton API alone, 4 weeks, 50° C.
[3] = with Carbomer 1:1, 2 weeks, 50° C.
[4] = with Carbomer 1:1, 4 weeks, 50° C.
[5] = with Ceteareth-20 1:1, 2 weeks, 50° C.
[6] = with Ceteareth-20 1:1, 4 weeks, 50° C.
[7] = with Hypromellose (HPMC) 1:1, 2 weeks, 50° C.
[8] = with Hypromellose (HPMC) 1:1, 4 weeks, 50° C.
[9] = with Hypromellose (HPMC) 1:1, Day 0
[10] = with Phospholipon 90H 1:1, 2 weeks, 50° C.
[11] = with Phospholipon 90H 1:1, 4 weeks, 50° C.
[12] = with Phospholipon 90H 1:1, Day 0
[13] = with Stearyl alcohol 1:1, 2 weeks, 50° C.
[14] = with Stearyl alcohol 1:1, 4 weeks, 50° C.
[15] = with Stearyl alcohol 1:1, Day 0
[16] = with Titanium dioxide 1:1, 2 weeks, 50° C.
[17] = with Titanium dioxide 1:1, 4 weeks, 50° C.
[18] = with Titanium dioxide 1:1, Day 0
[19] = with White wax 1:1, 2 weeks, 50° C.
[20] = with White wax 1:1, 4 weeks, 50° C.

CC(c1cc2ccccc2s1)N(O)C(N)=O (racemic) [Zileuton, (±)-1-(1-(benzo [b]thiophen-2-yl)ethyl)-1-hydroxyurea]
Appearance [1]: White
TRS. % [1]: 3.311% and 3.006%
Appearance [2]: White
TRS. % [2]: 2.711% and 2.493%
TRS. % (Zileuton API alone, Day 0): 2.378%
Appearance [3]: White
TRS. % [3]: 2.385% and 3.067%
Appearance [4]: White
TRS. % [4]: 2.330% and 2.403%
Appearance (with Carbomer 1:1, Day 0): White
TRS. % (with Carbomer 1:1, Day 0): 3.326%
Appearance [5]: White
TRS. % [5]: 3.445% and 3.365%
Appearance [6]: White
TRS. % [6]: 3.632% and 3.549%
Appearance (with Ceteareth-20 1:1, Day 0): White
TRS. % (with Ceteareth-20 1:1, Day 0): 2.394%
Appearance [7]: White
TRS. % [7]: 2.864% and 2.949%
Appearance [8]: White
TRS. % [8]: 2.555% and 2.580%
Appearance [9]: White
TRS. % [9]: 2.610%
Appearance [10]: White
TRS. % [10]: 2.820% and 2.846%
Appearance [11]: White
TRS. % [11]: 2.557% and 2.429%
Appearance [12]: White
TRS. % [12]: 2.400%
Appearance [13]: White
TRS. % [13]: 2.935% and 2.796%
Appearance [14]: White
TRS. % [14]: 2.512% and 2.567%
Appearance [15]: White
TRS. % [15]: 3.311%
Appearance [16]: White
TRS. % [16]: 2.803% and 2.839%
Appearance [17]: White
TRS. % [17]: 2.507% and 2.504%
Appearance [18]: White
TRS. % [18]: 2.344%
Appearance [19]: White
TRS. % [19]: 2.863% and 2.843%
Appearance [20]: White
TRS. % [20]: 2.459% and 2.381%
Appearance (with White wax 1:1, Day 0): White
TRS. % (with White wax 1:1, Day 0): 2.372%

Source: patent publication US9855243B2, “Topical anti-inflammatory pharmaceutical composition with zileuton cream formulation” (Qurient Co., Ltd., priority 2013, dated 2018)
